From BindingDB's records for doi:10.1021/acsmedchemlett.3c00041 (Insilico Medicine Hong Kong, 2023)

biological target: Tyrosine-protein kinase JAK1 (Homo sapiens, UniProt P23458); assay: Inhibition of JAK1 (unknown origin)
Sequence (P23458 whole entry): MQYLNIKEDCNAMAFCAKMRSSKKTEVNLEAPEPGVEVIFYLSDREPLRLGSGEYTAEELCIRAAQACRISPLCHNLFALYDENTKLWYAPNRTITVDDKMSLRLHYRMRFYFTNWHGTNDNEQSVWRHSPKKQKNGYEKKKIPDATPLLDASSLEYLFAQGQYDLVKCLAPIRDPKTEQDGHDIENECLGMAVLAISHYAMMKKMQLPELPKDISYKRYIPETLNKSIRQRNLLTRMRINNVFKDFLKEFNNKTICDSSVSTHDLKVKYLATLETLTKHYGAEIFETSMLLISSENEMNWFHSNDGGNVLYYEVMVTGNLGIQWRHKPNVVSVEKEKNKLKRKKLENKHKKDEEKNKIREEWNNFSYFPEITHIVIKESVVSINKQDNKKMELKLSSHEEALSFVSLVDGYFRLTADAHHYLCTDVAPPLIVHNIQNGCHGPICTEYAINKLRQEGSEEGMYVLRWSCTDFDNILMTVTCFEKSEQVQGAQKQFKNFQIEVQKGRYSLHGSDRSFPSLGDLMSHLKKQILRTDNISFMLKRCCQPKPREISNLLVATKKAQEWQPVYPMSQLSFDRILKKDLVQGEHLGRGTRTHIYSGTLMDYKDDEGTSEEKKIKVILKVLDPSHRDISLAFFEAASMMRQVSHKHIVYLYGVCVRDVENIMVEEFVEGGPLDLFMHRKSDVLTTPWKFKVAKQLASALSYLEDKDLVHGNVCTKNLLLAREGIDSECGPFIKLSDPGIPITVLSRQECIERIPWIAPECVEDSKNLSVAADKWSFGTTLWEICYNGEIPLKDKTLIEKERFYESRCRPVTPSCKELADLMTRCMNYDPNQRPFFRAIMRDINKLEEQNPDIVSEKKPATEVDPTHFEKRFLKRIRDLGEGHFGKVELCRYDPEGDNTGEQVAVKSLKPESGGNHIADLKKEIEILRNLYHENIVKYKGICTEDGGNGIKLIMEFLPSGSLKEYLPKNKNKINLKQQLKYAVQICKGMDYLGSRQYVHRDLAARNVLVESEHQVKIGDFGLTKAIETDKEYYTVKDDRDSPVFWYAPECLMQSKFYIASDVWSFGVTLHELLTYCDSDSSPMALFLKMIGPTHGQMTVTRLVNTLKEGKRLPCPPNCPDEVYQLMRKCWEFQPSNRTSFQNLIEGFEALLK

Row | IC50 [nM] | Compound
1 | 500 | CCC1CN(C(=O)NCC(F)(F)F)CC1NCc1ccc(C)nc1-c1cnc2[nH]ccc2c1 (stereo not drawn)
2 | 930 | CCC1CN(C(=O)NCC(F)(F)F)CC1N(C)c1ncnc2[nH]ccc12 (stereo not drawn)
3 | 9600 | CCC1CN(C(=O)NCC(F)(F)F)CC1c1nc(N)nc2[nH]ccc12 (stereo not drawn)
